Assay results from patent publication US11779600B2, “Methods of treating or preventing alzheimer's disease and associated conditions” (CEDARS-SINAI MEDICAL CENTER, priority 2016, dated 2023).

Key:
[1] = test system: OPN; assay: Quantitative IHC of cerebral OPN expression in ADtg mice; assay type: in vivo, mouse
Protocol: ADtg mice (10 months old) received subcutaneous injections of GA [also known as Cop-1 and Copaxone®; 100 μg in phosphate-buffered saline (PBS)] or PBS alone (control group) twice a week for 1 week and then once a week for 8 weeks. For evaluation of innate immune infiltration to the brain by flow cytometry, 10-month-old ADtg mice received subcutaneous injections of GA ([…] in PBS) or PBS alone twice a week for 1 week and then once a week for 3 weeks. At the end of the study, all mice were anaesthetized and then perfused with ice-cold PBS with 0.5 mM EDTA, after which their organs were collected and analyzed or fixed in 2.5% paraformaldehyde (Sigma-Aldrich), and cryoprotected with 30% sucrose for further histological analysis. CD115^+ monocytes from mice donors were isolated as previously reported (Koronyo et al., Brain: a journal of neurology 2015,138:2399-2422). […] For microscopic analysis, we used a Carl Zeiss Axio Imager Z1 fluorescence microscope equipped with ApoTome (Carl Zeiss MicroImaging, Inc.). […] The number and area (μm^2) of OPN+ cells, Iba1^+CD45^hi cells, GFAP^+ cells, Thio-S^+ amyloid-βplaques and 4G8^+ amyloid-βplaques were determined by examining four to six coronal sections per mouse at 150-μm intervals over an area covering both the hippocampal and cortical (including entorhinal and cingulate cortex) regions. […]

[2] = test system: MΦ^BM; assay: Macrophage cell length measurement; assay type: cell-based, mouse; conditions: GA treatment (FIG. 16A-16B)
Protocol: A set of three Stealth OPN siRNAs made up of 25-bp duplex oligoribonucleotides each were used with sequences corresponding to the sense and antisense strands of OPN (Invitrogen). Equal amounts (100 nM each) of siRNAs were mixed and diluted in OptiMEM (Gibco) to finalconcentration of 100nmol/L, then transiently transfected into MΦ^BM using Lipofectamine® RNAiMAX Transfection Reagent (Invitrogen), per manufacturer's protocol. Control macrophages were transfected with Stealth RNAi™ siRNA Negative Control. MΦ^BM were incubated for 48 hours after transfection, and were used for subsequent experiments.
The long and short axes of cells were manually measured in μm from microscopic images (McWhorter et al., Proceedings of the National Academy of Sciences of the U.S. Pat. No. 2,013,110:17253-17258) using length tools in the Axiovision Rel. 4.8 software package. At least 100 cells were examined in each experiment where individual cells were assayed by microscopy.
Macrophages can acquire distinct phenotypes and biological functions depending on their microenvironment. Past studies reported that OPN promotes macrophages to switch to the anti-inflammatory M2 phenotype. The possible role of OPN in macrophage polarization towards an anti-inflammatory phenotype, which has been associated with elongated cell shape was explored. […]

For glatiramer acetate [GA], the “cerebral OPN expression in comparison to PBS controls” value ([1]; quantitative IHC, symptomatic ADtg mice, 2 months treatment (FIG. 11B)) was 1.5 times, the “increase in total OPN expression per Aβ-plaque area” value ([1]; ratio of total OPN area to plaque area, total brain regions (FIG. 11D)) was 2.6 fold and the cell length increase [2] was 1.3 fold.
